Assays:
[1] = Hansen and Hildebrand solubility parameters
From the text: The Hansen solubility parameters are used for predicting if one material will dissolve in another and form a (homogeneous) solution.
Furthermore, solvents with similar Hansen solubility parameters will have similar solubility characteristics, including which agrochemical active components will and which agrochemical active components will not dissolve in the solvents.

physchem = conditions: for solubility: organic solvent or mixture, thermodynamic from solid
From the text: Said saturated solutions were subsequently analyzed by HPLC to determine the agrochemical active component concentration. The samples were centrifuged and filtered twice through 1.6 and 0.45 μm filters to remove any extraneous material prior to analysis.
For each combination of agrochemical active component, a calibration curve was established to plot the instrumental response, e.g., the analytical signal, changes with the concentration of the agrochemical active component.

Lactuca sativa = assay: Phytotoxicity study on lettuce; format: in vivo; conditions: lettuce Lucrecia RZ sprayed until saturation at 1%, 2%, 5% and 10%; 5 and 10 days after spraying
Description: The aim of this experiment is to determine if these solvents can cause phytotoxicity on lettuce at different concentrations. Lettuce of the Lucrecia RZ variety was sown in potting soil and transplanted into 3L pots. For each of the solvents, four concentrations were tested: 1%, 2%, 5% and 10%. A control (water) was also performed. […] Fifteen replicates per treatment were conducted. A monitoring of the appearance of potential spots due to phytotoxicity is carried out 5 days and 10 days after spraying.

[2] = tested on: microorganisms of the inoculum
Description: The test duration is 28 days. The vessels contained 250 ml of the inoculated buffered mineral salt medium and the test material (test substance or reference substance) as the sole carbon source. To each test series blanks (without test material) were set up to run in parallel. Incubation was conducted at 22±1° C. in diffuse light and agitation by magnetic stirrers. All analyses were conducted at least in duplicate. Oxygen consumption was continuously measured with a respirometer. The amount of oxygen taken up by the microorganisms during biodegradation (biological oxygen demand; BOD) is compared with the chemical oxygen demand (COD) of the test substance. The percent biodegradation of the test substance is calculated from the BOD in relation to the COD or alternative of the theoretical oxygen demand (ThOD) of the test substance. The test material (92 mg/L) was distributed in a thin layer on an inert carrier (glass fiber filter) and added directly to the aqueous medium.

SMILES	Hansen Solubility Parameters δd [1]	Hansen Solubility Parameters δn [1]	Hansen Solubility Parameters δp [1]	Hildebrand δ [1]	other results
O=C1CCCCC1 [Cyclohexanone]	17.8 J/mL	5.1 J/mL	6.3 J/mL	19.56 J/mL	
CCOC(C)=O [Ethyl Acetate]	15.8 J/mL	7.2 J/mL	5.3 J/mL	18.15 J/mL	
Nc1c(Cl)c(F)nc(OCC(=O)O)c1Cl [Fluroxypyr]					Solubility in saturation (physchem): 546.25 mg/mL; solubility (physchem; Solubility in saturation): 537 mg/mL
CC1=CC(=O)CC(C)(C)C1 [Isophorone]	16.6 J/mL	7.4 J/mL	8.2 J/mL	19.94 J/mL	
CC1(C)CCC(Cc2ccc(Cl)cc2)C1(O)Cn1cncn1 (stereo not shown) [Metconazole]					solubility (physchem; Solubility in saturation): 210 mg/mL
COC(=O)Nc1cccc(OC(=O)Nc2cccc(C)c2)c1 [Phenmidipham]					Solubility in saturation (physchem; in n-butyl THF, saturated solution MT 181, HPLC, pure active ingredient): 35.66 mg/mL; Solubility in saturation (physchem; in t-butyl THF, saturated solution MT 181, HPLC, pure active ingredient): 37.11 mg/mL
OC(Cc1ccccc1Cl)(Cn1nc[nH]c1=S)C1(Cl)CC1 (stereo not shown) [Prothioconazole]					solubility (physchem): 341 mg/mL
CC(COc1ccc(Oc2ccccc2)cc1)Oc1ccccn1 (stereo not shown) [Pyriproxyfen]					solubility (physchem; Solubility in saturation): 631 mg/mL
OCC1CCCO1 (stereo not shown) [THFA TetraHydroFurfurylAlcohol, TetraHydroFurfurylAlcohol]	17.8 J/mL	10.2 J/mL	8.2 J/mL	22.09 J/mL	
CC(C)(C)C(O)(CCc1ccc(Cl)cc1)Cn1cncn1 (stereo not shown) [Tebuconazole]					solubility (physchem; Solubility in saturation): 181 mg/mL; solubility (physchem; t-butyl THF, Solubility in saturation, in t-butyl THF, saturated solution MT 181, HPLC, pure active ingredient): 188 mg/mL
CCCCOCC1CCCO1 (stereo not shown) [n-butyl THF, 2-(butoxymetyl)tetrahydrofuraan]	16.47 J/mL	5.96 J/mL	4.74 J/mL	18.15 J/mL	phytotoxicity on salads (spots) (Lactuca sativa): absence of phytotoxicity; inhibition of the microorganisms of the inoculum [2]: non-inhibitory
CCCCOC(C)=O [n-butyl acetate]	15.8 J/mL	6.3 J/mL	3.7 J/mL	17.41 J/mL	
Cc1ccc(C)cc1 [p-Xylène]	17.6 J/mL	3.1 J/mL	1 J/mL	17.90 J/mL	
CC(C)(C)OCC1CCCO1 (stereo not shown) [t-butyl THF, 2-(tert-Butoxymethyl)tetrahydrofuran]					phytotoxicity on salads (spots) (Lactuca sativa): absence of phytotoxicity

From US20250143290A1, “AGROCHEMICAL COMPOSITION COMPRISING AT LEAST ONE AGROCHEMICAL ACTIVE COMPONENT AND A SOLVENT” (MINAGRO SRL, priority 2022, published 2025)
